What was measured:
telomerase = telomerase (Homo sapiens, UniProt O14746); test: Q-TRAP telomerase activity in MCF7 breast cancer cells; format: cell-based; set-up: allow the enzymatic addition of telomeric DNA repeats by endogenous telomerase; endogenous in cells
[1] = system: PC3, a human prostate cancer cell line; test: MTT toxicity assay in PC3 prostate cancer cells; format: cell-based
Method: Toxicity of the dibenzyl butyl lactone derivative (3-[(3,4-dimethoxyphenyl)cyclopentyl], 4-[(3-hydroxyphenol)methyl]oxolan-2-one) in breast cancer cells was evaluated using MTT assay. The MTT toxicity test is a colorimetric assay to measure cells' metabolic activity by serving as a substrate of cellular enzymes that reduce the tetrazolium orange dye, MTT (3-(4,5-Dimethylthiazol-2-yl)-2,5-diphenyltetrazolium bromide) to its insoluble, formazan, giving a purple color. The rate of conversion is directly proportional to cells' mitochondrial metabolic activity via NAD (P) H-dependent cellular oxidoreductase enzymes and serves as a surrogate marker of cell viability.
Cells previously expanded were seeded in 96 well plates at 1.9×10^5 and 9.6×10^4 cells/plate for 24- and 72-hours treatment respectively. This concentration is known to show the best window for the MTT assay, with better sensitivity and low variability.
5 mg of powdered enterolactone, dibenzyl butyl lactone derivative enantiomer A, and dibenzyl butyl lactone derivative enantiomer B were dissolved in 500 μl of DMSO at room temperature. Eight-point curves, ⅓ dilutions (highest concentration 125 μM), were prepared.
Twenty-four hours following the seeding process, the cells were washed once with phosphate buffered saline (PBS) and treated with the respective compounds in cell culture media. Each condition was tested in triplicates. For positive and negative controls, 8 mM methyl methane sulfonate (MMS) and DMSO 100% were used respectively.
Following compound addition, the plates were incubated for 24 and 72 hours. After the treatment period, cells were washed twice with PBS and media was replaced with MTT reagent at 0.5 mg/ml in Dulbecco's modified Eagle medium (DMEM) without phenol red. The plates were gently shaken and incubated for 4 hours. After the incubation the medium was removed and replaced by DMSO. The plates were gently shaken to solubilize the formazan crystals. Absorbance was measured using an Envision multiplate reader at a wavelength of 570 nm.
Toxicity of the dibenzyl butyl lactone derivative (3-[(3,4-dimethoxyphenyl)cyclopentyl], 4-[(3-hydroxyphenol)methyl]oxolan-2-one) in prostate cancer cells was evaluated using MTT assay. The same methods as those used in Example 2 were employed, except the cell line used was PC3, a human prostate cancer cell line, and cell cultures were established in Kaighn's modification of Ham's […] medium.
MTT assay results are shown in Tables 16-21 and expressed as the percentage of cell death after treatment.

Chain of telomerase (O14746 whole entry): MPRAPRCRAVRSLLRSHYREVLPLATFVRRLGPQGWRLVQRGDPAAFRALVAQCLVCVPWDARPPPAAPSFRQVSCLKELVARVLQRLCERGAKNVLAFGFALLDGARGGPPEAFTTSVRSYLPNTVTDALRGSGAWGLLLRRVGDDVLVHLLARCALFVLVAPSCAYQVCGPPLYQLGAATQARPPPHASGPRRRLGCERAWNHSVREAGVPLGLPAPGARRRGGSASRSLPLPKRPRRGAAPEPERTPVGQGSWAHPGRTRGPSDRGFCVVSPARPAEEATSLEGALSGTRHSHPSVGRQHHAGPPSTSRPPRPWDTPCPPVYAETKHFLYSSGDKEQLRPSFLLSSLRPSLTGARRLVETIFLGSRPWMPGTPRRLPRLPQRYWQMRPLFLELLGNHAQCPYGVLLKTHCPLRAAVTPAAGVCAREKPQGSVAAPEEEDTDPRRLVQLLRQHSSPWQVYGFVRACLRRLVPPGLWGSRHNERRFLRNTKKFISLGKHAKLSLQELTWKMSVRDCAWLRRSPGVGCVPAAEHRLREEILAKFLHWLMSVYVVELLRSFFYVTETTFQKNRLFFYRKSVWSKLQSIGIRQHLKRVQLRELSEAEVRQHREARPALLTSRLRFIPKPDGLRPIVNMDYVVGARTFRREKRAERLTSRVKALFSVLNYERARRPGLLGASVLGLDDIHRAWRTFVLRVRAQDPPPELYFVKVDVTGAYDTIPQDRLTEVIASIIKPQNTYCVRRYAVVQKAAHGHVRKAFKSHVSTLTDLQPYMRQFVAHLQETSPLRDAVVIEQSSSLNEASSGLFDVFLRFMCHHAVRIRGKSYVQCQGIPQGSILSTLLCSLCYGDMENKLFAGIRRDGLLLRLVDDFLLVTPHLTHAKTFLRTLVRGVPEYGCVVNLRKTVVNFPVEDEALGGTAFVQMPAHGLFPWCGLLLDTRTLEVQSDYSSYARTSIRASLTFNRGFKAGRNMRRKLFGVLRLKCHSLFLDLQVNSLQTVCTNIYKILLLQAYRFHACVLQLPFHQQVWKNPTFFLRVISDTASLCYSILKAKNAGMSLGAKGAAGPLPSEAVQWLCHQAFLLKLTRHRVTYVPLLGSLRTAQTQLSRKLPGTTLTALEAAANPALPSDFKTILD
Chain of telomerase (O60832 whole entry partner): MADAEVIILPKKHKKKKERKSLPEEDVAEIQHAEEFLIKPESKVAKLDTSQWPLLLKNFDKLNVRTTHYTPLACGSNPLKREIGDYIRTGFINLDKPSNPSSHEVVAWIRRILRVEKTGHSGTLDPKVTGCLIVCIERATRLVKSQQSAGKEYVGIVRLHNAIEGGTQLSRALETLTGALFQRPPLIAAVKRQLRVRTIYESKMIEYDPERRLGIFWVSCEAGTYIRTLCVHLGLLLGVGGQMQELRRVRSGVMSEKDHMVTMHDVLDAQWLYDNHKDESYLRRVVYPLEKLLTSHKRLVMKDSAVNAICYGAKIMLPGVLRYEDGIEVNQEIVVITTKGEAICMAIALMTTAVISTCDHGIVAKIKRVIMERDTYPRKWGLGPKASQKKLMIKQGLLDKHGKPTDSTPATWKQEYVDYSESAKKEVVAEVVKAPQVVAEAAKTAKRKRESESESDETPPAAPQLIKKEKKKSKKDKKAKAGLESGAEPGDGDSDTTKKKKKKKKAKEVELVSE
Chain of telomerase (Q9NPE3 whole entry partner): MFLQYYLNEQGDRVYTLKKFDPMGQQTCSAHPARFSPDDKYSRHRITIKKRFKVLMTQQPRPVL
Chain of telomerase (Q9NX24 whole entry partner): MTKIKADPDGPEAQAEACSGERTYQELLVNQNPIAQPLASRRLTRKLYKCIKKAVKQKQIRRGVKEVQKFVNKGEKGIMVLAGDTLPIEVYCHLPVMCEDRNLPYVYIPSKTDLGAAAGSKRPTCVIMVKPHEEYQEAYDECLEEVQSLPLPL
Chain of telomerase (Q9NY12 whole entry partner): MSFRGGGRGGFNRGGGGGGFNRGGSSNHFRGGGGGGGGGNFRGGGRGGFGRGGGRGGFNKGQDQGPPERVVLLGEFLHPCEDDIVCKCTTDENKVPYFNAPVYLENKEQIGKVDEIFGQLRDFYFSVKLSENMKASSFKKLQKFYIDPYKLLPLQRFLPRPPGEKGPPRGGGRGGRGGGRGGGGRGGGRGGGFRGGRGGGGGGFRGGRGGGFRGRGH
Chain of telomerase (Q9BUR4 whole entry partner): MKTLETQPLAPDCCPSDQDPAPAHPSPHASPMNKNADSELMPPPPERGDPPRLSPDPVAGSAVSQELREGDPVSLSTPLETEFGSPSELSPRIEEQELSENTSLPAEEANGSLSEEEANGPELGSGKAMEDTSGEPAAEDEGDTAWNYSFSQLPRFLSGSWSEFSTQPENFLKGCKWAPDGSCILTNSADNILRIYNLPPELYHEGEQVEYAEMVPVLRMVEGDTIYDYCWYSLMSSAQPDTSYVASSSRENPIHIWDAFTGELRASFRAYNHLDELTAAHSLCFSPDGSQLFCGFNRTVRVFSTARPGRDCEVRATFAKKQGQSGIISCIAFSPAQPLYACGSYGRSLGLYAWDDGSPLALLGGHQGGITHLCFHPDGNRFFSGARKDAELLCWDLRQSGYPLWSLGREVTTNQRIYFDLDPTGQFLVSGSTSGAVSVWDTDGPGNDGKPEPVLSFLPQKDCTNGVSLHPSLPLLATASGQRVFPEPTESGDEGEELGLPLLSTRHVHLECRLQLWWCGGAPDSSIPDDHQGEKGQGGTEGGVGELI

O=C1OC[C@H](Cc2cccc(O)c2)[C@H]1Cc1cccc(O)c1 (racemic) [Enterolactone, reference compound]
IC50 (telomerase; MCF7, 24 h): > 40 µM | IC50 (telomerase; MCF7, 48 h): > 40 µM | IC50 (telomerase; MCF7, 72 h): > 40 µM | telomerase activity following treatment as compared to control (untreated) groups (telomerase; MCF7, Q-TRAP): no significant difference in telomerase activity | Cell death #1 (%) ([1]; PC3, 24 hours, 0.06 μM): −3.37% | Cell death #2 (%) ([1]; PC3, 24 hours, 0.06 μM): −20.79% | Cell death #3 (%) ([1]; PC3, 24 hours, 0.06 μM): −22.43% | Cell death (%) MEAN ([1]; PC3, 24 hours, 0.06 μM): −15.53% | Cell death #1 (%) ([1]; PC3, 24 hours, 0.17 μM): −12.56% | Cell death #2 (%) ([1]; PC3, 24 hours, 0.17 μM): −5.41% | Cell death #3 (%) ([1]; PC3, 24 hours, 0.17 μM): −10.24% | Cell death (%) MEAN ([1]; PC3, 24 hours, 0.17 μM): −9.40% | Cell death #1 (%) ([1]; PC3, 24 hours, 0.51 μM): −29.78% | Cell death #2 (%) ([1]; PC3, 24 hours, 0.51 μM): −35.88% | Cell death #3 (%) ([1]; PC3, 24 hours, 0.51 μM): −8.98% | Cell death (%) MEAN ([1]; PC3, 24 hours, 0.51 μM): −24.88% | Cell death #1 (%) ([1]; PC3, 24 hours, 1.54 μM): −30.56% | Cell death #2 (%) ([1]; PC3, 24 hours, 1.54 μM): −47.58% | Cell death #3 (%) ([1]; PC3, 24 hours, 1.54 μM): −25.82% | Cell death (%) MEAN ([1]; PC3, 24 hours, 1.54 μM): −34.65% | Cell death #1 (%) ([1]; PC3, 24 hours, 4.63 μM): −41.49% | Cell death #2 (%) ([1]; PC3, 24 hours, 4.63 μM): −38.59% | Cell death #3 (%) ([1]; PC3, 24 hours, 4.63 μM): −32.20% | Cell death (%) MEAN ([1]; PC3, 24 hours, 4.63 μM): −37.42% | Cell death #1 (%) ([1]; PC3, 24 hours, 13.89 μM): −33.85% | Cell death #2 (%) ([1]; PC3, 24 hours, 13.89 μM): −41.29% | Cell death #3 (%) ([1]; PC3, 24 hours, 13.89 μM): −40.62% | Cell death (%) MEAN ([1]; PC3, 24 hours, 13.89 μM): −38.59% | Cell death #1 (%) ([1]; PC3, 24 hours, 41.67 μM): −32.30% | Cell death #2 (%) ([1]; PC3, 24 hours, 41.67 μM): −17.98% | Cell death #3 (%) ([1]; PC3, 24 hours, 41.67 μM): −35.59% | Cell death (%) MEAN ([1]; PC3, 24 hours, 41.67 μM): −28.62% | Cell death #1 (%) ([1]; PC3, 24 hours, 125.00 μM): 19.65% | Cell death #2 (%) ([1]; PC3, 24 hours, 125.00 μM): 12.01% | Cell death #3 (%) ([1]; PC3, 24 hours, 125.00 μM): 15.10% | Cell death (%) MEAN ([1]; PC3, 24 hours, 125.00 μM): 15.59% | Cell death #1 (%) ([1]; PC3, 72 hours, 0.06 μM): −39.68% | Cell death #2 (%) ([1]; PC3, 72 hours, 0.06 μM): −40.18% | Cell death #3 (%) ([1]; PC3, 72 hours, 0.06 μM): −37.32% | Cell death (%) MEAN ([1]; PC3, 72 hours, 0.06 μM): −39.06% | Cell death #1 (%) ([1]; PC3, 72 hours, 0.17 μM): −49.03% | Cell death #2 (%) ([1]; PC3, 72 hours, 0.17 μM): −43.54% | Cell death #3 (%) ([1]; PC3, 72 hours, 0.17 μM): −39.93% | Cell death (%) MEAN ([1]; PC3, 72 hours, 0.17 μM): −44.17% | Cell death #1 (%) ([1]; PC3, 72 hours, 0.51 μM): −71.45% | Cell death #2 (%) ([1]; PC3, 72 hours, 0.51 μM): −77.56% | Cell death #3 (%) ([1]; PC3, 72 hours, 0.51 μM): −73.70% | Cell death (%) MEAN ([1]; PC3, 72 hours, 0.51 μM): −74.24% | Cell death #1 (%) ([1]; PC3, 72 hours, 1.54 μM): −63.98% | Cell death #2 (%) ([1]; PC3, 72 hours, 1.54 μM): −69.71% | Cell death #3 (%) ([1]; PC3, 72 hours, 1.54 μM): −46.41% | Cell death (%) MEAN ([1]; PC3, 72 hours, 1.54 μM): −60.03% | Cell death #1 (%) ([1]; PC3, 72 hours, 4.63 μM): −74.57% | Cell death #2 (%) ([1]; PC3, 72 hours, 4.63 μM): −70.83% | Cell death #3 (%) ([1]; PC3, 72 hours, 4.63 μM): −81.17% | Cell death (%) MEAN ([1]; PC3, 72 hours, 4.63 μM): −75.52% | Cell death #1 (%) ([1]; PC3, 72 hours, 13.89 μM): −60.86% | Cell death #2 (%) ([1]; PC3, 72 hours, 13.89 μM): −51.02% | Cell death #3 (%) ([1]; PC3, 72 hours, 13.89 μM): −63.98% | Cell death (%) MEAN ([1]; PC3, 72 hours, 13.89 μM): −58.62% | Cell death #1 (%) ([1]; PC3, 72 hours, 41.67 μM): −35.45% | Cell death #2 (%) ([1]; PC3, 72 hours, 41.67 μM): −32.21% | Cell death #3 (%) ([1]; PC3, 72 hours, 41.67 μM): −34.95% | Cell death (%) MEAN ([1]; PC3, 72 hours, 41.67 μM): −34.20% | Cell death #1 (%) ([1]; PC3, 72 hours, 125.00 μM): 35.94% | Cell death #2 (%) ([1]; PC3, 72 hours, 125.00 μM): 32.46% | Cell death #3 (%) ([1]; PC3, 72 hours, 125.00 μM): 22.11% | Cell death (%) MEAN ([1]; PC3, 72 hours, 125.00 μM): 30.17%
